Results on 1 compound are retold here after patent US20070025995A1, “Taxoid derivative covalently linked to tumor-specific antibody and a method for preparing the same” (priority 2005, published 2007).

The assay deals with tubulin. Description: Tubulin polymerization activity (HTS-Tubulin Polymerization Assay Kit, OD340). Type of assay: biochemical. As to conditions: absorbance at 340 nm over reaction time; FIG. 1; paclitaxel control 3.7 mg/mL aqueous solution. The text has this: The anticancer agent of the present invention has the structure of paclitaxel or docetaxel, and thus it was conjectured that the compound manifests its anticancer effects by inducing overproduction of tubulin in the same manner as paclitaxel or docetaxel. However, this compound blocks tubulin polymerization in the same manner as vinblastine. The tubulin polymerization activity assay was, as shown in Test Example 1, determined by measuring the absorbance at 340 nm and measuring tubulin polymerization activity.
Tubulin polymerization activity was measured using the HTS-Tubulin Polymerization Assay Kit (manufactured by Cytoskeleton) with respect to both the reaction solution of the present invention obtained in Example 1 and 3.7 mg/mL aqueous solution of paclitaxel used as a control.
The horizontal axis in the figure denotes reaction time (min) and the vertical axis represents tubulin polymerization activity (OD340).

Regarding `CC(=O)O[C@H]1C(=O)[C@@]2(C)[C@H]([C@H](OC(=O)c3ccccc3)[C@]3(O)C[C@H](OC(=O)[C@H](O)[C@@H](NC(=O)c4ccccc4)c4ccccc4)C(C)=C1C3(C)C)[C@]1(OC(C)=O)CO[C@@H]1C[C@@H]2O` [paclitaxel, Paclitaxel], the “tubulin polymerization activity (OD340)” value is recorded as “tubulin polymerization was stimulated”.
